Data from patent US12109215B2, “Combination therapies for inhibition of polo-like kinase 4” (UNIVERSITY HEALTH NETWORK, priority 2017, dated 2024).

How the values were obtained:
CT26 tumor = assay: Established CT26 tumor treatment in BALB/cJ mice (tumor volume, regression); assay type: in vivo
Protocol: (§1) BALB/cJ mice were inoculated subcutaneously with 1×10^6 CT26 cells, and C57BL/6 mice were inoculated subcutaneously with 0.5×10^6 MC38 cells. The mice were then randomized. Animal weights were monitored daily, and tumor volume was measured three times per week.
(§2) […] was defined as 100×[1−TVf,treated−TVi,treated)/(TVf,control−TVi,control)], where TVf is the average tumor volume at the end of study and TVi is the average tumor volume at the end initiation of treatment. In cases in which tumor regression occurred, percentage of tumor regression was defined as 100×[1−(TVf,treated/TVi,treated)]. At the completion of each study, the mice were killed by an anesthetic overdose, and tumor tissue was removed for further analysis.
(§3) Treatments were initiated when tumor volumes reached an average size of ˜60 mm^3. To treat an established CT26 or MC38 tumor, the animals were first assigned into groups, i.e., the control group receiving rat IgG2a isotype control, the group receiving the compound CFI-400945 monotherapy, the group receiving the rat IgG2a anti-PD-1 antibody monotherapy and the group receiving the combination therapy.
The compound CFI-400945 and the vehicle (water) were administered by oral gavage (PO), at one of the following dosages: (i) 6.5 mg/kg once daily (QD) for 21 days; (ii) 13 mg/kg twice a week (BIW or 2 on/5 off) for 21 days; (iii) 52 mg/kg once weekly (QW) for 21 days; and (iv) 104 mg/kg in two doses, i.e., on Days 0 and 14.
(§4) The anti-PD-1 antibody or the isotype control were administered by intraperitoneal (IP) injection. 150 μg anti-PD-1 antibody was administered in four doses, i.e., on Days 0, 3, 6 and 10.

[1] = Tolerability in the CT26 tumor study (body weight, animal death); assay type: in vivo
Protocol: as §1, §4

CT26 cells = assay: Re-challenge by inoculation with CT26 cells on Day 36 of animals with complete regression; assay type: in vivo, BALB/cJ mice
Protocol: Further to the tumor volume measurements, the animals in which complete regression had occurred as described above, either by CFI-400945 monotherapy or by IgG2a anti-PD-1 antibody-CFI-400945 combination therapy, were re-challenged by inoculation with CT26 cells on Day 36, as shown in FIGS. 1D (6.5 mg/kg QD CFI-400945+anti-PD-1 antibody), 1E (13 mg/kg BIW CFI-400945), 1F (13 mg/kg BIW CFI-400945+anti-PD-1 antibody), 1G (52 mg/kg QW CFI-400945), 1H (52 mg/kg QW CFI-400945+anti-PD-1 antibody) and 1J (104 mg/kg CFI-400945 on Days 0 and 14+anti-PD-1 antibody).

MC38 tumor = assay: Established MC38 tumor treatment in C57BL/6 mice (tumor volume, regression); assay type: in vivo; settings: first batch of MC38 experiments; CFI-400945 6.5 mg/kg once daily for 21 days, alone (FIG. 2C) or with anti-PD-1 antibody 150 μg Days 0, 3, 6, 10 (FIG. 2D)
Protocol: as §1, §2
as §3, with “therapy. […]” for “therapy.”

[2] = CFI-400945 104 mg/kg PO on Days 0 and 14

## COc1ccc2c(c1)[C@]1(C[C@H]1c1ccc3c(/C=C/c4ccc(CN5C[C@@H](C)O[C@@H](C)C5)cc4)n[nH]c3c1)C(=O)N2 [CFI-400945]
CT26 tumor; CFI-400945 6.5 mg/kg PO once daily for 21 days, alone (FIG. 1C) or with anti-PD-1 antibody 150 μg IP Days 0, 3, 6, 10 (FIG. 1D)
  complete regression of CT26 tumors: no instances in which complete regression was observed
CT26 tumor; CFI-400945 6.5 mg/kg PO once daily for 21 days, single agent (FIG. 1C)
  CT26 tumor growth: tumor growth delay
CT26 tumor; CFI-400945 13 mg/kg PO twice a week for 21 days, alone (FIG. 1E) or with anti-PD-1 antibody 150 μg IP Days 0, 3, 6, 10 (FIG. 1F)
  CT26 tumors with regression: one of the eight
CT26 tumor; CFI-400945 52 mg/kg PO once weekly for 21 days, alone (FIG. 1G) or with anti-PD-1 antibody 150 μg IP Days 0, 3, 6, 10 (FIG. 1H)
  CT26 tumors with regression: one of the eight
[1]; CFI-400945 6.5 mg/kg PO daily for 21 days
  tolerability of dosage: well-tolerated
[1]; CFI-400945 6.5 mg/kg PO daily for 21 days, data not shown
  body weight loss or animal death: lack of any significant body weight loss (data not shown) or any animal death
[1]; CFI-400945 13 mg/kg PO twice a week for 21 days
  tolerability of dosage: well-tolerated
[1]; CFI-400945 52 mg/kg PO once weekly for 21 days
  tolerability of dosage: well-tolerated
[1]; [2]
  animals found dead: two
  tolerability of dosage: not be well-tolerated
CT26 cells; animals with complete regression after CFI-400945 13 mg/kg BIW, alone (FIG. 1E) or + anti-PD-1 antibody (FIG. 1F)
  tumor growth after re-challenge with CT26 cells on Day 36: tumors did not grow in any mouse
CT26 cells; animals with complete regression after CFI-400945 52 mg/kg QW, alone (FIG. 1G) or + anti-PD-1 antibody (FIG. 1H)
  tumor growth after re-challenge with CT26 cells on Day 36: tumors did not grow in any mouse
MC38 tumor
  regression of MC38 tumors: Regression was also observed
